From publication PMC8842743 (Journal of Alzheimer's Disease Reports, 2022)

Columns and labels:
[1] = target: Porcine gastric mucosa pepsin (Sus scrofa, UniProt P00791); assay: Pepsin FRET assay; assay type: biochemical
[2] = target: T1, Renin recombinant human enzyme (Homo sapiens, UniProt P00797); assay: Renin FRET assay; assay type: biochemical
T1 sequence (P00797 67-406): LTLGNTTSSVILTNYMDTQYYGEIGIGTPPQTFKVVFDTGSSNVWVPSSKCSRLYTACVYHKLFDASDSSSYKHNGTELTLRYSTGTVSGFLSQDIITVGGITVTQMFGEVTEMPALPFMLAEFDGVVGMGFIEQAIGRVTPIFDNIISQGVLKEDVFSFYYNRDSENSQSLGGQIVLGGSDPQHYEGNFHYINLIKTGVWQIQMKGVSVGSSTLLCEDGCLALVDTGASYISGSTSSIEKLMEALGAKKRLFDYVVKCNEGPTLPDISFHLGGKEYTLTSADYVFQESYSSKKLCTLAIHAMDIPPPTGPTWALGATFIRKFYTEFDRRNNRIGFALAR

[3] = test system: Aβ; conditions: cited from earlier work

Sequence of Porcine gastric mucosa pepsin (P00791 60-385): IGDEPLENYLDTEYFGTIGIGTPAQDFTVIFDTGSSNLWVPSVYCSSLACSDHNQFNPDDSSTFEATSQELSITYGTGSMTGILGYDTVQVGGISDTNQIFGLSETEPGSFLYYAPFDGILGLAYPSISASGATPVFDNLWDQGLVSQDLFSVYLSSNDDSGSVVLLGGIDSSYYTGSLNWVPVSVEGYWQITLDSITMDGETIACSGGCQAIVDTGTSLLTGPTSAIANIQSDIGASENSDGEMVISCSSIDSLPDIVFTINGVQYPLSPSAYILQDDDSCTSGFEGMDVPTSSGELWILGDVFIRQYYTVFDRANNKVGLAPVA

| IC50 [1] | IC50 [2] | SMILES | Aβ reduction explored in Phase III studies [3] |
| --- | --- | --- | --- |
| 77.4 µM | 14.1 µM | NC1=N[C@@]2(c3cc(NC(=O)c4ccc(F)cn4)ccc3F)COC[C@H]2CS1 [LY2886721, reference compound] |  |
|  |  | CN1C(=N)N[C@](C)(c2cc(NC(=O)c3ccc(F)cn3)ccc2F)CS1(=O)=O [verubecestat] | approximately 85% |
